US11396501B2, “Heteroaryl compounds as CXCR4 inhibitors, composition and method using the same” (CGENETECH (SUZHOU, CHINA) CO., LTD., priority 2017, dated 2022)

Target: CXCR4 (Homo sapiens, UniProt P61073)
Assay: FLIPR Tetra calcium mobilization assay
Assay type: cell-based
Conditions: Human CD4+ T-Cells; CXCL12 added; FLIPR Calcium 4 assay kit
Protocol: FLIPR Tetra Calcium Mobilization Assay The FLIPR Tetra calcium mobilization assay was performed by HD Bioscience. Briefly, The Molecular Devices, Fluorescent Imaging Plate Reader (FLIPR) Tetra was used in this assay. Excitation was achieved through unique placement of LED's within the instrument and emission captured by a CCD camera (EMCCD camera for FI and ICCD camera for luminescence). The homogeneous FLIPR Calcium 4 assay kit from Molecular Devices was used as the fluorescence reagent. Compounds were solubilized in 100% dimethyl sulfoxide (DMSO) to a concentration of 30 mM. A 10-point, 4-fold, intermediate dilution series was created in 100% DMSO with a top concentration of 4 mM and a bottom concentration of 0.01 μM. A near assay ready, direct dilution plate ([…]) was prepared from this compound dilution plate by transferring 1 μL of each dilution of compound in 100% DMSO to a Greiner #781201 plate. In addition, each […] plate also contained positive and negative control wells to define the upper and lower limits for the assay signal. The final assay concentration range of compound was 10 μM to 0.035 nM in 0.5% DMSO. Human CD^4+ T-Cells were isolated from human whole blood and subsequently activated and expanded using a CD3/CD28 expansion kit (Life Technologies). The cells were frozen in ThermoFisher-formulated Recovery Cell Culture Freezing Medium containing 10% Dimethyl sulfoxide (DMSO) and 10% Fetal Bovine Serum (FBS) (ThermoFisher Catalog No. 10100147). When used, cells were resuspended using room temperature 1× HBSS/20 mM HEPES/0.005% P-104 assay buffer, adjusted the volume of the suspension to achieve a cell concentration of 2.5×10^6 cells/mL. 2× Calcium 4 dye (20 μL/well) were added and the mixture were centrifuged briefly ( 10 s) and stopped when it reached 1000 rpm. The plates were allowed to equilibrate before compounds and CXCL12 were added to the plates. The raw data were analyzed using Abase. The percent (%) effect at each concentration of compound was calculated by Abase and was based on and relative to the amount of calcium produced in the positive and negative control wells contained within each assay plate. The concentrations and % effect values for tested compounds were plotted by Abase and the concentration of compound required for 50% effect (IC50) was determined with a four-parameter logistic dose response equation. FIGS. 3 and 4 summarize the results of Compounds A78 and A83 in the calcium mobilization assay.

Sequence of CXCR4 (P61073 whole entry): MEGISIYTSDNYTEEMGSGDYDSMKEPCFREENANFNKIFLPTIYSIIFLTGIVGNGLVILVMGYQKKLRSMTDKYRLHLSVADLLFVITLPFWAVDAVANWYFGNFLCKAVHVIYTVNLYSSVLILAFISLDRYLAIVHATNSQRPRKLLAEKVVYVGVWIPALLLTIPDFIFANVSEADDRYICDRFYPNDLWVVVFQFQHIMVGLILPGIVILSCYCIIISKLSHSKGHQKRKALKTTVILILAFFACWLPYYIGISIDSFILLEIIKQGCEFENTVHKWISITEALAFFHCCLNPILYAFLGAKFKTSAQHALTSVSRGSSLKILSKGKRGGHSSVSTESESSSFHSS

| IC50 | SMILES |
| --- | --- |
| 0.2 nM | Cc1cccnc1[C@@H]1CCCN1Cc1cn2c(N3CCN(C)CC3)cccc2n1 [Compound C38, (S)-5-(4-methylpiperazin-1-yl)-2-((2-(3-methylpyridin-2-yl)pyrrolidin-1-yl)methyl)imidazo11,2-alpyridine] |
| 0.1 nM | Cc1cccnc1[C@@H]1CCCN1Cc1nc2cccc(N3CCN(C)CC3)n2c1CO [Compound C39, (S)-(5-(4-methylpiperazin-1-yl)-2-((2-(3-methylpyridin-2-yl)pyrrolidin-1-yl)methyl)imidazo[1,2-a]pyridin-3-yl)methanol] |
| 0.63 nM | Cc1nc(CN(C)c2cccc3cccnc23)cc(N2CCCN(C)CC2)n1 [Compound D3] |
| 2.1 nM | Cc1nc(CN(C)c2cccc3cccnc23)cc(N2CCN(CCO)CC2)n1 [Compound D5] |
| 2.4 nM | Cc1nc(CN(C)c2cccc3cccnc23)cc(N2CCC(N(C)C)CC2)n1 [Compound D6] |
| 0.75 nM | Cc1nc(CN(C)c2cccc3cccnc23)cc(N2CCC(N(C)C)C2)n1 (stereo not drawn) [Compound D7] |
| 1.4 nM | Cc1nc(CN(C)c2cccc3cccnc23)cc(N2CCN(C3CC3)CC2)n1 [Compound D8] |
| 0.59 nM | CCc1nc(CN(C)c2cccc3cccnc23)cc(N2CCN(C)CC2)n1 [Compound D9] |
| 2.9 nM | CN1CCN(c2cc(CN(C)c3cccc4cccnc34)nc(C3CC3)n2)CC1 [Compound D10] |
| 1700 nM | CN1CCN(c2cc(CN(C)c3cccc4cccnc34)nc(N(C)C)n2)CC1 [Compound D11] |
| 0.61 nM | CSc1nc(CN(C)c2cccc3cccnc23)cc(N2CCN(C)CC2)n1 [Compound D12] |
| 2.9 nM | COc1nc(CN(C)c2cccc3cccnc23)cc(N2CCN(C)CC2)n1 [Compound D13] |
| 0.4 nM | Cc1cc(N(C)Cc2cc(N3CCN(C)CC3)nc(C)n2)c2ncccc2c1 [Compound D15] |
| 2.7 nM | Cc1nc(CN(C)c2ccc(C)c3cccnc23)cc(N2CCN(C)CC2)n1 [Compound D16] |
| 74 nM | Cc1nc(CN(C)c2c(F)ccc3cccnc23)cc(N2CCN(C)CC2)n1 [Compound D17] |
| 0.79 nM | Cc1nc(CN(C)c2cc(F)cc3cccnc23)cc(N2CCN(C)CC2)n1 [Compound D18] |
| 0.4 nM | Cc1nc(CN(C)c2ccc(F)c3cccnc23)cc(N2CCN(C)CC2)n1 [Compound D19] |
| 1580 nM | Cc1nc(CN(C)c2nccc3cccnc23)cc(N2CCN(C)CC2)n1 [Compound D21, N-methyl-N-((2-methyl-6-(4-methylpiperazin-1-yl)pyrimidin-4-yl)methyl)-1,7-naphthyridin-8-amine] |
| 965 nM | Cc1nc(CN(C)c2cncc3cccnc23)cc(N2CCN(C)CC2)n1 [Compound D22, N-methyl-N-((2-methyl-6-(4-methylpiperazin-1-yl)pyrimidin-4-yl)methyl)-1,6-naphthyridin-8-amine] |
| 12400 nM | Cc1nc(CN(C)c2ncnc3cccnc23)cc(N2CCN(C)CC2)n1 [Compound D24] |
| 2.3 nM | Cc1nc(CN(c2cccc3cccnc23)C2CC2)cc(N2CCN(C)CC2)n1 [Compound D26] |
| 1.7 nM | Cc1nc(CN(CCCCNC(=O)OC(C)(C)C)c2cccc3cccnc23)cc(N2CCN(C)CC2)n1 [Compound D27] |
| 12.7 nM | Cc1nc(CN(CCCC(=O)OC(C)(C)C)c2cccc3cccnc23)cc(N2CCN(C)CC2)n1 [Compound D29] |
| 1.25 nM | Cc1nc(CN(CCCC(N)=O)c2cccc3cccnc23)cc(N2CCN(C)CC2)n1 [Compound D31, 4-(((2-methyl-6-(4-methylpiperazin-1-yl)pyrimidin-4-yl)methyl)(quinolin-8-yl)amino)butanamide] |
| 0.53 nM | CCN(Cc1cc(N2CCN(C)CC2)nc(C)n1)c1cc(C)cc2cccnc12 [Compound D32] |
| 0.51 nM | Cc1nc(CN(C)c2cccc3cccnc23)c(C)c(N2CCN(C)CC2)n1 [Compound D33] |

| IC50 | SMILES |
| --- | --- |
| 0.83 nM | Cc1nc(CN(C)c2cccc3cccnc23)c(F)c(N2CCN(C)CC2)n1 [Compound D34] |
| 1.2 nM | Cc1nc(CN(C)c2cccc3cccnc23)c(Cl)c(N2CCN(C)CC2)n1 [Compound D35] |
| 0.95 nM | Cc1nc(CN(C)c2cccc3cccnc23)c(CO)c(N2CCN(C)CC2)n1 [Compound D37] |
| 0.18 nM | CN1CCN(c2cccc3nc(CN(C)c4cccc5cccnc45)cn23)CC1 [Compound D38] |
| 0.088 nM | CN1CCN(c2cccc3nc(CN(C)c4cccc5cccnc45)c(CO)n23)CC1 [Compound D39] |
| 2850 nM | Cc1nc(CN(C)c2ccc(C(F)(F)F)c3cccnc23)cc(N2CCN(C)CC2)n1 [Compound D40] |
| 6.3 nM | Cc1nc(CN(C)c2ccc(Br)c3cccnc23)cc(N2CCN(C)CC2)n1 [Compound D41] |
| 96 nM | Cc1nc(CN(C)c2ccc(C#N)c3cccnc23)cc(N2CCN(C)CC2)n1 [Compound D42] |
| 3380 nM | Cc1nc(CN(C)c2ccc(S(C)(=O)=O)c3cccnc23)cc(N2CCN(C)CC2)n1 [Compound D43, N-methyl-N-((2-methyl-6-(4-methylpiperazin-1-yl)pyrimidin-4-yl)methyl)-5-(methylsulfonyl)quinolin-8-amine] |
| 104 nM | Cc1nc(CN(C)c2cc(C(F)(F)F)cc3cccnc23)cc(N2CCN(C)CC2)n1 [Compound D44] |
| 3 nM | Cc1nc(CN(C)c2cc(Br)cc3cccnc23)cc(N2CCN(C)CC2)n1 [Compound D45] |
| 53 nM | Cc1nc(CN(C)c2cc(C#N)cc3cccnc23)cc(N2CCN(C)CC2)n1 [Compound D46] |
| 13 nM | Cc1nc(CN(C)c2cc(S(C)(=O)=O)cc3cccnc23)cc(N2CCN(C)CC2)n1 [Compound D47] |
| 928 nM | Cc1nc(CN(C)c2c(C(F)(F)F)ccc3cccnc23)cc(N2CCN(C)CC2)n1 [Compound D48] |
| 4.5 nM | Cc1nc(CN(C)c2c(Br)ccc3cccnc23)cc(N2CCN(C)CC2)n1 [Compound D49] |
| 14 nM | Cc1nc(CN(C)c2c(C#N)ccc3cccnc23)cc(N2CCN(C)CC2)n1 [Compound D50, 8-(methyl((2-methyl-6-(4-methylpiperazin-1-yl)pyrimidin-4-yl)methyl)amino)quinoline-7-carbonitrile] |
| 2090 nM | Cc1nc(CN(C)c2c(S(C)(=O)=O)ccc3cccnc23)cc(N2CCN(C)CC2)n1 [Compound D51] |
| 4.5 nM | Cc1nc(CN(C)c2cc(F)cc3cccnc23)cc(N2CCN(C)CC2CO)n1 (stereo not drawn) [Compound D52] |
| 6.7 nM | Cc1nc(CN(C)c2cc(F)cc3cccnc23)cc(N2CCN(C)C(CO)C2)n1 (stereo not drawn) [Compound D53] |
| 7.2 nM | CN1CCN(c2cc(CN(C)c3cccc4cccnc34)nc(CO)n2)CC1 [Compound D54] |
| 39 nM | Cc1nc(CN(C)c2cc(CO)cc3cccnc23)cc(N2CCN(C)CC2)n1 [Compound D55, (8-(methyl((2-methyl-6-(4-methylpiperazin-1-yl)pyrimidin-4-yl)methyl)amino)quinolin-6-yl)methanol] |
| 5.5 nM | Cc1nc(CN(C)c2c(CO)ccc3cccnc23)cc(N2CCN(C)CC2)n1 [Compound D56] |
| 2880 nM | Cc1nc(CN(C)c2ccc(NS(C)(=O)=O)c3cccnc23)cc(N2CCN(C)CC2)n1 [Compound D57, N-(8-(methyl((2-methyl-6-(4-methylpiperazin-1-yl)pyrimidin-4-yl)methyl)amino)quinolin-5-yl)methanesulfonamide] |
| 55 nM | Cc1nc(CN(C)c2cc(NS(C)(=O)=O)cc3cccnc23)cc(N2CCN(C)CC2)n1 [Compound D58, N-(8-(methyl((2-methyl-6-(4-methylpiperazin-1-yl)pyrimidin-4-yl)methyl)amino)quinolin-6-yl)methane sulfonamide] |
| 450 nM | Cc1nc(CN(C)c2c(NS(C)(=O)=O)ccc3cccnc23)cc(N2CCN(C)CC2)n1 [Compound D59] |
